Publication PMC2390898 (Antiviral Research, 2006)
Read-outs that look alike come from different tables or passages of the source.

What was measured:
BCBL-1 cells [1] = assay: PMO/P-PMO uptake and persistence in BCBL-1 cells; format: cell-based
LANA = format: cell-based, Kaposi's sarcoma-associated herpesvirus (KSHV)
RTA [2] = format: cell-based, Kaposi's sarcoma-associated herpesvirus (KSHV)
KSHV = format: cell-based, Kaposi's sarcoma-associated herpesvirus (KSHV)
RTA [3] = format: cell-based, Kaposi's sarcoma-associated herpesvirus (KSHV); remark: listed apart in the source
RTA [4] = format: cell-based, Kaposi's sarcoma-associated herpesvirus (KSHV); remark: listed apart in the source
RTA [5] = format: cell-based, Kaposi's sarcoma-associated herpesvirus (KSHV); remark: listed apart in the source
BCBL-1 cells [6] = details: for relative percentage of fluorescence intensity (cell viability): 1 h
[7] = tested on: ORF50 leader sequence (RP1 P-PMO target region)-luciferase RNA; format: biochemical, Kaposi's sarcoma-associated herpesvirus (KSHV)
LP1/luciferase RNA = assay: Cell-free reporter assay with LP1/luciferase RNA; format: biochemical, Kaposi's sarcoma-associated herpesvirus (KSHV); details: data not shown

For H-RRRRRFFRRRRC-NH2 [P-PMO-F1], the “cells with green fluorescence at 24, 48 and 72 h (fluorescence microscopy)” value (BCBL-1 cells [1]; BCBL-1 cells treated 4 h with 8 μM, rinsed, harvested 24, 48 and 72 h later) was “almost all cells”, the “cells with green fluorescence at 24, 48 and 72 h (flow cytometry)” value (BCBL-1 cells [1]; BCBL-1 cells treated 4 h with 8 μM, rinsed, harvested 24, 48 and 72 h later, all three time points) was “over 95%” and the “fluorescence of cells by flow cytometry” value (BCBL-1 cells [1]; BCBL-1 cells, 8 μM, treated for 4 h, flow cytometry, 525 nm band pass filter) was “high percentage”. The “green fluorescence in treated cells at day 7” value (BCBL-1 cells [1]; BCBL-1 cells, day 7 after treatment, reduced intensity, data not shown) was “still observed”.

In the case of H-RRRRRFFRRRRC-NH2 [LP2], the “LANA protein level (IFA and Western blot)” value (LANA) is reported as “caused reduction”, the “LANA staining by IFA after three treatments” value (LANA) is reported as “much weaker” and the “reduction in LANA protein level after the second application” value (LANA) is reported as “over 60%”.

With “tetradecanoyl phorbol acetate [TPA, reference compound]” the “RTA-positive cells by flow cytometry after TPA induction, no P-PMO” value (RTA [2]) was “approximately 25%”, the “increase of KSHV viral DNA level by TPA induction, in cells” value (KSHV) was 1.84 fold and the “increase of KSHV viral DNA level by TPA induction, in culture supernatant” value (KSHV) was 2.75 fold. The “RTA-positive cells by IFA after TPA induction, no P-PMO” value (RTA [3]) was “approximately 20%”.

In the case of CC(=O)N1C[C@@H](COP(=O)(N(C)C)N2C[C@@H](COP(=O)(N(C)C)N3C[C@@H](COP(=O)(N(C)C)N4C[C@@H](COP(=O)(N(C)C)N5C[C@@H](COP(=O)(N(C)C)N6C[C@@H](COP(=O)(N(C)C)N7C[C@@H](COP(=O)(N(C)C)N8C[C@@H](COP(=O)(N(C)C)N9C[C@@H](COP(=O)(N(C)C)N%10C[C@@H](COP(=O)(N(C)C)N%11C[C@@H](COP(=O)(N(C)C)N%12C[C@@H](COP(=O)(N(C)C)N%13C[C@@H](COP(=O)(N(C)C)N%14C[C@@H](COP(=O)(N(C)C)N%15C[C@@H](COP(=O)(N(C)C)N%16C[C@@H](COP(=O)(N(C)C)N%17C[C@@H](COP(=O)(N(C)C)N%18C[C@@H](COP(=O)(N(C)C)N%19C[C@@H](COP(=O)(N(C)C)N%20C[C@@H](COP(=O)(N(C)C)N%21CCN(C(=O)CCCN%22C(=O)CC(SC[C@H](NC(=O)[C@H](CCCNC(=N)N)NC(=O)[C@H](CCCNC(=N)N)NC(=O)[C@H](CCCNC(=N)N)NC(=O)[C@H](CCCNC(=N)N)NC(=O)[C@H](Cc%23ccccc%23)NC(=O)[C@H](Cc%23ccccc%23)NC(=O)[C@H](CCCNC(=N)N)NC(=O)[C@H](CCCNC(=N)N)NC(=O)[C@H](CCCNC(=N)N)NC(=O)[C@H](CCCNC(=N)N)NC(=O)[C@@H](N)CCCNC(=N)N)C(N)=O)C%22=O)CC%21)O[C@@H](n%21cnc%22c(=O)[nH]c(N)nc%22%21)C%20)O[C@@H](n%20cnc%21c(N)ncnc%21%20)C%19)O[C@@H](n%19cc(C)c(=O)[nH]c%19=O)C%18)O[C@@H](n%18cnc%19c(N)ncnc%19%18)C%17)O[C@@H](n%17cc(C)c(=O)[nH]c%17=O)C%16)O[C@@H](n%16cnc%17c(N)ncnc%17%16)C%15)O[C@@H](n%15ccc(N)nc%15=O)C%14)O[C@@H](n%14cnc%15c(N)ncnc%15%14)C%13)O[C@@H](n%13ccc(N)nc%13=O)C%12)O[C@@H](n%12cnc%13c(N)ncnc%13%12)C%11)O[C@@H](n%11cnc%12c(N)ncnc%12%11)C%10)O[C@@H](n%10ccc(N)nc%10=O)C9)O[C@@H](n9cnc%10c(N)ncnc%109)C8)O[C@@H](n8ccc(N)nc8=O)C7)O[C@@H](n7ccc(N)nc7=O)C6)O[C@@H](n6ccc(N)nc6=O)C5)O[C@@H](n5cnc6c(N)ncnc65)C4)O[C@@H](n4cnc5c(N)ncnc54)C3)O[C@@H](n3cc(C)c(=O)[nH]c3=O)C2)O[C@@H](n2cc(C)c(=O)[nH]c2=O)C1 (stereo partly drawn) [CP1], the “RTA flow cytometry profile” value (RTA [2]) is reported as “same profile as the mock treatment control”, the “LANA staining by IFA after three treatments” value (LANA) is reported as “no detectable effect” and the “change in RTA expression by Western blot” value (RTA [4]) is reported as “no detectable change”. The “RTA-positive cells by IFA” value (RTA [3]) was “approximately 20%”, the “number of RTA-positive cells by IFA in BC-1 cells” value (RTA [5]) was “no effect” and the cytotoxicity (BCBL-1 cells [6]) was “no detectable cytotoxicity”. The “relative percentage of fluorescence intensity (cell viability)” value (BCBL-1 cells [6]; 8 μM) was 106% and the “relative percentage of fluorescence intensity (cell viability)” value (BCBL-1 cells [6]; 16 μM) was 107%.

In the case of H-RRRRRFFRRRRC-NH2 [mRP1], the “change in RTA expression by Western blot” value (RTA [4]) is reported as “no effect”.

For H-RRRRRFFRRRRC-NH2 [LP1], the “effect on luciferase translation (negative control P-PMO)” value [7] was “did not have any effect”, the “inhibition of translation in LP1/luciferase reporter system” value (LP1/luciferase RNA) was “effective at inhibiting translation” and the “change in LANA level, recurrent application” value (LANA) was “no change”. For the same molecule, the “effect on LANA expression, single application (IFA and Western blot)” value (LANA) was “no effect”.
